Reference: the supplement of paper PMC10307832

Key:
Test in all cases: relative viability (nuclei count vs DMSO), 5 days (fraction); higher = more cells survive
[1] = compound: CCN(CCO)CCCC(C)Nc1ccnc2cc(Cl)ccc12 [Hydroxychloroquine] + C[C@@H](Oc1cc(-c2cnn(C3CCNCC3)c2)cnc1N)c1c(Cl)ccc(F)c1Cl [Crizotinib] (partner 1 µM)
Method in brief: (§1)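 Values are medians from duplicate plates. Each reflects relative viability, defined as the nuclei count of treated wells over that of vehicle wells. Lung cancer cell lines in 1536-well plates were pin-tool dosed one day after seeding with one drug alone or with a fixed anchor-drug dose plus five library-drug doses (not always all listed) in √10 steps, then fixed, stained and imaged at 4× after 5 days.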

[2] = compound: CCN(CCO)CCCC(C)Nc1ccnc2cc(Cl)ccc12 [Hydroxychloroquine] + O=C(CCCCCCC(=O)Nc1ccccc1)NO [Vorinostat] (partner 1 µM)
Method in brief: as §1

[3] = compound: CCN(CCO)CCCC(C)Nc1ccnc2cc(Cl)ccc12 [Hydroxychloroquine] + CC1(C)CCC(c2ccc(Cl)cc2)=C(CN2CCN(c3ccc(C(=O)NS(=O)(=O)c4ccc(N[C@H](CCN5CCOCC5)CSc5ccccc5)c(S(=O)(=O)C(F)(F)F)c4)cc3)CC2)C1 [Navitoclax] (partner 0.5 µM)
Method in brief: as §1

[4] = compound: CCN(CCO)CCCC(C)Nc1ccnc2cc(Cl)ccc12 [Hydroxychloroquine] + Cc1nc(Nc2ncc(C(=O)Nc3c(C)cccc3Cl)s2)cc(N2CCN(CCO)CC2)n1 [Dasatinib] (partner 0.075 µM)
Method in brief: as §1

| Cell Line | relative viability ([1]; first compound 0.5 µM) | relative viability ([1]; first compound 1.581 µM) | relative viability ([1]; first compound 5 µM) | relative viability ([1]; first compound 15.81 µM) | relative viability ([1]; first compound 50 µM) | relative viability ([2]; first compound 0.5 µM) | relative viability ([2]; first compound 1.581 µM) | relative viability ([2]; first compound 5 µM) | relative viability ([2]; first compound 15.81 µM) | relative viability ([2]; first compound 50 µM) | relative viability ([3]; first compound 0.5 µM) | relative viability ([3]; first compound 1.581 µM) | relative viability ([3]; first compound 5 µM) | relative viability ([3]; first compound 15.81 µM) | relative viability ([3]; first compound 50 µM) | relative viability ([4]; first compound 0.5 µM) | relative viability ([4]; first compound 1.581 µM) | relative viability ([4]; first compound 5 µM) | relative viability ([4]; first compound 15.81 µM) | relative viability ([4]; first compound 50 µM) |
| --- | --- | --- | --- | --- | --- | --- | --- | --- | --- | --- | --- | --- | --- | --- | --- | --- | --- | --- | --- | --- |
| NCI-H2087 | 1.02 | 0.982 | 1.09 | 0.864 | 1.11 | 0.719 | 0.74 | 0.778 | 0.798 | 0.609 | 0.972 | 0.938 | 1.04 | 1.16 | 1.04 | 0.96 | 0.77 | 0.794 | 0.954 | 0.969 |
| NCI-H2228 | 0.461 | 0.46 | 0.46 | 0.491 | 0.427 | 0.5 | 0.594 | 0.457 | 0.515 | 0.839 | 0.671 | 0.717 | 1.04 | 0.78 | 1.16 | 0.53 | 0.456 | 0.516 | 0.524 | 0.506 |
| NCI-H838 | 0.805 | 0.8 | 0.823 | 0.829 | 0.974 | 0.721 | 0.667 | 0.803 | 0.716 | 0.721 | 1.16 | 1.11 | 1.13 | 1.14 | 1.24 | 0.256 | 0.258 | 0.296 | 0.242 | 0.237 |
| NCI-H661 | 0.939 | 0.962 | 1.05 | 0.927 | 1.09 | 0.827 | 0.828 | 0.782 | 0.802 | 0.782 | – | – | – | – | – | 0.841 | 0.872 | 0.764 | 0.722 | 0.894 |
| NCI-H596 | 0.918 | 1.04 | 1.05 | 1.05 | 1.01 | 0.612 | 0.765 | 0.523 | 0.398 | 0.587 | 0.857 | 0.853 | 0.933 | 0.979 | 0.998 | 0.56 | 0.587 | 0.59 | 0.655 | 0.591 |
| EBC-1 | 0.196 | 0.181 | 0.181 | 0.189 | 0.189 | – | – | – | – | – | 0.371 | 0.387 | 0.418 | 0.412 | 0.374 | – | – | – | – | – |
| NCI-H727 | 0.839 | 0.815 | 0.804 | 0.908 | 0.885 | 1.07 | 1.22 | 1.23 | 0.969 | 1.33 | 0.456 | 0.399 | 0.482 | 0.357 | 0.406 | 0.337 | 0.379 | 0.471 | 0.43 | 0.457 |
| NCI-H1299 | 0.999 | 0.937 | 0.91 | 0.98 | 0.693 | – | – | – | – | – | 1.05 | 1.01 | 1.02 | 1.05 | 1.04 | – | – | – | – | – |
| LK-2 | 0.246 | – | 0.198 | 0.181 | 0.197 | 0.318 | 0.274 | 0.248 | 0.299 | 0.294 | 0.777 | 0.763 | 0.809 | 0.914 | 0.632 | 0.258 | 0.261 | – | 0.294 | 0.357 |
| NCI-H1993 | 0.867 | 0.948 | 0.803 | 0.888 | 0.949 | 0.828 | 0.837 | 0.599 | 0.656 | 0.727 | 0.931 | 0.779 | 0.879 | 1.03 | 0.893 | 0.597 | 0.699 | 0.87 | 0.547 | 0.566 |
